Measured values reported in patent US11083793B2, “Epidermal growth factor receptor (EGFR) targeted photosensitizers” (Health Research, Inc., priority 2016, dated 2021).

Experiments:
[1] = molecular target: T1, ABCG2 (Homo sapiens, UniProt Q9UNQ0); test: ABCG2 substrate specificity: PS uptake with/without Gleevec, UMUC3; assay type: cell-based; conditions: UMUC3 cells; PS 500 nM; Gleevec 5 μM; fluorescence
T1 construct: endogenous in cells; host or cells: UMUC3 bladder cancer cells
T1 sequence (Q9UNQ0 1-655): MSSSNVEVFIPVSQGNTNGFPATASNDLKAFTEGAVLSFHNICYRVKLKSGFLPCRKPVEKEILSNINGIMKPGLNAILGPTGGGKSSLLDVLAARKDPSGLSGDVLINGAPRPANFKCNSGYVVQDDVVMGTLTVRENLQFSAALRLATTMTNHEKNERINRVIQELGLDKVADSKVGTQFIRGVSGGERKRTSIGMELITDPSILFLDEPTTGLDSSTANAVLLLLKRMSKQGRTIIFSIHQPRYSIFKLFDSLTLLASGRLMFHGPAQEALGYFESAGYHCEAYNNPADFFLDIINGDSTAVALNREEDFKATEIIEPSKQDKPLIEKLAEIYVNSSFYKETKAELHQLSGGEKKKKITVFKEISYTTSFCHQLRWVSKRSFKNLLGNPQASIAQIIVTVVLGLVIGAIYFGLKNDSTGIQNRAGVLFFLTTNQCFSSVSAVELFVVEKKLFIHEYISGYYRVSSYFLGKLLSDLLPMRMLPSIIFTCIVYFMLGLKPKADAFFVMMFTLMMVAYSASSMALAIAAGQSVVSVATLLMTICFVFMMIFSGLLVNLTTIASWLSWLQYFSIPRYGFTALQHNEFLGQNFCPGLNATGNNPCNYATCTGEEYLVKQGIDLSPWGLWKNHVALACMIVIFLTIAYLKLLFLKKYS
Text: (§1) T24 cells lack ABCG2 expression.
(§2) C1e. In contrast to PS 1 and 2, the PS- erlotinib conjugate 3 is not the substrate of ABCG2: The influence of PS as substrate for ABCG2 transport was observed by fluorescent microscopy. […] This information is very interesting as it could help to select an effective treatment option to cancer patients with and without expression of ABCG2 transporter.

[2] = system: UMUC3 tumors; test: In vivo uptake in tumor, liver and skin (IVIS), UMUC3 tumors; parameters: species or system SCID mice; conditions: UMUC3 tumor model; 0.47 μmol/kg
Procedure: C1i. PS with and without erlotinib show high tumor-uptake and significant difference in their pharmacokinetic profiles in UMUC3 and T24 tumors implanted in SCID mice: The SCID mice bearing either UMUC3 or T24 tumors (4-5 mm size) were injected with the PS 30, and the corresponding erlotinib conjugates 6, 34 & 39 with and without iodine functionality. Among the iodinated analogs, the iodobenzyl group was introduced either at the bottom half of 5 or top half of the molecule 39, and were converted into the corresponding radioactive (^124I-) analogs for PET imaging. The non-radioactive analogs were injected in tumored mice (3 mice/group) at a dose of 0.47 μmol/kg), and the mice were imaged at regular time intervals. The dose was selected on the basis of the therapeutic dose of HPPH. The uptake of tumor, liver and skin was measured by IVIS system (3 mice group), and interesting pharmacokinetic profiles of the PS were observed (FIG. 8).
C1j. […] Therefore, the tumors were exposed to light at their optimal uptake time points respectively.

[3] = system: HNSCC cells; test: 3-D co-culture of HN-85-1-3 and tumor stromal cells; assay type: cell-based; conditions: 1600 nM, 24 h, then 48 h in medium
Procedure: The cells were washed free of PS and incubated for additional 48 h in medium. The fluorescence for CSFE stromal cells and PS fluorescence was recorded in an inverted fluorescent microscope.
The tumor specificity of the compounds was also confirmed in head & neck cancer using 3D culture system.

[4] = molecular target: T1, ABCG2; test: In vitro PDT efficacy with/without Gleevec (MTT), UMUC3; assay type: cell-based; conditions: UMUC3 cells
Text: as §2

[5] = system: ABCG2; test: ABCG2 substrate specificity: PS uptake with/without Gleevec, T24; assay type: cell-based; conditions: T24 cells (lack ABCG2); PS 500 nM; Gleevec 5 μM; fluorescence
Text: as §1, §2

[6] = system: UMUC3 tumors; test: HPPH-PDT in combination with BCG, UMUC3 tumors; assay type: in vivo, mice; conditions: HPPH 0.47 μmol/kg in combination with BCG (1-1.5×10^6 CFU SQ weekly×3); 135 J/cm^2, 75 mW/cm^2 at 6 h
Procedure: For details see the text.
One hour after the PDT treatment, BCG was injected (1-1.5×10^6 CFU), SQ weekly×3 doses, and the day 30 data summarized in FIG. 11, are very encouraging.

[7] = system: HN-85-1-3 cells; test: Growth inhibition of EGF-dependent HNSCC cell cultures; assay type: cell-based; conditions: 3.2 μM, 72 h, RPMI+10% FBS; preliminary experiments
Procedure: HN-85-1-3 cells were cultured of 72 h in regular growth medium (RPMI+10% FBS) and containing 3.2 μM erlotinib or the indicated PSs. The cell density was photographically recorded at the beginning and end of the culture period. The cell-associated PSs were determined by fluorescence imaging.

`CCCCCCOC(C)c1c(C)c2cc3nc(c4c5[nH]c(cc6nc(cc1[nH]2)C(C)=C6CC)c(C)c5C(=O)C4)[C@@H](CCC(=O)O)[C@@H]3C` (some centres unmarked) [HPPH, 2-(1-Hexyloxyethyl)-2-devinyl pyropheophorbide-a] was tested. Which “uptake of PS on addition of Gleevec” value [1] did it give?
The value was “significantly increased”.

What about the “time of optimal/maximum tumor uptake post-injection” value [2] of the same compound?
Its value is 24 h.

And the “retention by HNSCC cells in 3-D co-culture” value [3]?
Its value is “low retention”.

And the “substrate of ABCG2” value [4]?
The value was “substrates of ABCG2”.

And the “PDT efficacy with and without Gleevec” value ([4]; MTT assay)?
The value was “enhancement of PDT efficacy”.

What about the “uptake of PS on addition of Gleevec” value [5] of the same compound?
The value was “did not show any significant increase”.

What about the “long-term cure compared to HPPH-PDT alone” value [6] of the same compound?
The value was “improved long-term cure”.

Which growth inhibition [7] does the source give for `C#Cc1cccc(Nc2ncnc3cc(OCCOC)c(OCCOC)cc23)c1` [erlotinib] here?
Its growth inhibition is “cytostatic action”.
